Measurements as given in ChEMBL document CHEMBL1909046, “DrugMatrix in vitro pharmacology data”.

How the values were obtained:
[1] = target: Aldo-keto reductase family 1 member B1 (Rattus norvegicus, UniProt P07943); format: tissue-based, Lens of camera-type eye;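 note: inhibition of aldose reductase enzyme activity, measured with DL-glyceraldehyde as the substrate; in other assays of this panel Not Active means under 50% inhibition at 10 µM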
[2] = target: T1, Type-2 angiotensin II receptor (Homo sapiens, UniProt P50052); format: cell-based; settings: cho-k1; note: in other assays of this panel Not Active means under 50% inhibition at 10 µM
T1 sequence (P50052 whole entry): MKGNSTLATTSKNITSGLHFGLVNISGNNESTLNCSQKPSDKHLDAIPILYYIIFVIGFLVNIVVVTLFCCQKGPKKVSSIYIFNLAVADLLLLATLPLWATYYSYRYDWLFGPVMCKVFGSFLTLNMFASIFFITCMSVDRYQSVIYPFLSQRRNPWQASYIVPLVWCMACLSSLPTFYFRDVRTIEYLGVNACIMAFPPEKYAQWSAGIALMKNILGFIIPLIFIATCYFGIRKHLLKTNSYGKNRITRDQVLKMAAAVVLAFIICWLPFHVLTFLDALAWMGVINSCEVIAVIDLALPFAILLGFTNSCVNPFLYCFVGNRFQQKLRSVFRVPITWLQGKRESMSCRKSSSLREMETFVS

[3] = DRUGMATRIX: Sigma2 radioligand binding (ligand: [3H] Ifenprodil); format: cell membranes, Rattus norvegicus, Wistar, Brain, Membrane; settings: Not Active = under 50% inhibition at 10 µM
B2 bradykinin receptor = target: T2, B2 bradykinin receptor (Homo sapiens, UniProt P30411); format: cell membranes, Membrane; settings: chem-1; note: in other assays of this panel Not Active means under 50% inhibition at 10 µM
T2 sequence (P30411 whole entry): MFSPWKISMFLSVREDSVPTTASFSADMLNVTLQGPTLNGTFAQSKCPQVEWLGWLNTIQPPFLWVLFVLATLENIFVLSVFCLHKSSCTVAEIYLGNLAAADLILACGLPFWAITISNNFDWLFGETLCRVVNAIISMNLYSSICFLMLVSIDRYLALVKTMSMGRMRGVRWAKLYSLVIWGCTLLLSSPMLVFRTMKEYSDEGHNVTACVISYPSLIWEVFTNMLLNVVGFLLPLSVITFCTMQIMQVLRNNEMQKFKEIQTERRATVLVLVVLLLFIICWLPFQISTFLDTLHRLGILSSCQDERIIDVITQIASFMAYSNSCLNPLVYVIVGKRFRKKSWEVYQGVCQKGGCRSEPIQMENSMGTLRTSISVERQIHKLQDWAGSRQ

D(4) dopamine receptor = target: T3, D(4) dopamine receptor (Homo sapiens, UniProt P21917); experiment: DRUGMATRIX: Dopamine D4.2 radioligand binding (ligand: [3H] Spiperone); format: cell membranes, CHO-K1, Membrane; settings: cho-k1; Not Active = under 50% inhibition at 10 µM
T3 sequence (P21917 whole entry): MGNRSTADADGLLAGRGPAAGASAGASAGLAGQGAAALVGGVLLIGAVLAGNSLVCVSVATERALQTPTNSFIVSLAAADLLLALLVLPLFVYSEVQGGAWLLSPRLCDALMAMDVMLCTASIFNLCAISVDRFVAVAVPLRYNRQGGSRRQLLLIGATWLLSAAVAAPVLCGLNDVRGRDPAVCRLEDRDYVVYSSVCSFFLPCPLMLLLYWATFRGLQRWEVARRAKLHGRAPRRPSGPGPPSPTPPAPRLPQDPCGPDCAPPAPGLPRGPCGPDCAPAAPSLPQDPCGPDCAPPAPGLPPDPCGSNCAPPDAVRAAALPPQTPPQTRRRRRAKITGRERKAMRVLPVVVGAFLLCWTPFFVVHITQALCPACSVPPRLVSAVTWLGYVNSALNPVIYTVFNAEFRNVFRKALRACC

Cannabinoid receptor 1 = Cannabinoid receptor 1 (Homo sapiens, UniProt P21554); format: cell membranes, Chem-1, Membrane; settings: chem-1; note: in other assays of this panel Not Active means under 50% inhibition at 10 µM
Sequence of Cannabinoid receptor 1 (P21554 whole entry): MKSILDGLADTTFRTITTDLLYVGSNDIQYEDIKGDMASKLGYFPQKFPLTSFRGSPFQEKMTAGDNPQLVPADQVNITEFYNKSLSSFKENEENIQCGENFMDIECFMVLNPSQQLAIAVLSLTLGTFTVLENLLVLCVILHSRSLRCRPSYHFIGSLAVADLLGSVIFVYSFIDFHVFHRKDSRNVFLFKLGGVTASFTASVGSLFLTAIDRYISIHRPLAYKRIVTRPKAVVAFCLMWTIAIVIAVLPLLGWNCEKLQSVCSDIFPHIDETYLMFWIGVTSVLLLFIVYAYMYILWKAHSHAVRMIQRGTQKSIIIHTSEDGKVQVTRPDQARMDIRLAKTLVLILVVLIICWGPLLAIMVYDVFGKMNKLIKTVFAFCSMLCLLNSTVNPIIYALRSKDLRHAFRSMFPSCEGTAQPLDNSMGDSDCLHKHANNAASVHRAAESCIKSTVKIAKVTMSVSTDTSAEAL

[4] = target: Kappa-type opioid receptor (Homo sapiens, UniProt P41145); experiment: DRUGMATRIX: Opiate kappa (OP2, KOP) radioligand binding (ligand: [3H] Diprenorphine); format: cell membranes, HEK293, Membrane; settings: hek293; Not Active = under 50% inhibition at 10 µM
Sequence of Kappa-type opioid receptor (P41145 whole entry): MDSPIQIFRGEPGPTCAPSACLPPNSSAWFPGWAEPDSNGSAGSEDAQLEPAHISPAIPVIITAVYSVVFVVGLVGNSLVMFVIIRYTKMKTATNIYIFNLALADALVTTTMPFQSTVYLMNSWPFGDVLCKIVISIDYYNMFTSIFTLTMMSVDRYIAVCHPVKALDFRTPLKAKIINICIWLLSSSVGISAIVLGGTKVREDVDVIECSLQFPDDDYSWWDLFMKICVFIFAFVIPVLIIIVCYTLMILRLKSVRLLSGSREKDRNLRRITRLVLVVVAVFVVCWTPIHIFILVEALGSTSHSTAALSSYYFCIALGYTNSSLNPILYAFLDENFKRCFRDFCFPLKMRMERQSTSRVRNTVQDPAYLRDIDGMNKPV

## C[C@@H]1C[C@H]2[C@@H]3CCC4=CC(=O)C=C[C@]4(C)[C@@]3(F)[C@@H](O)C[C@]2(C)[C@@]1(O)C(=O)CO [DEXAMETHASONE]
[1]
  IC50: Not Active
[2]
  IC50: Not Active
[3]
  IC50: Not Active
  Ki: Not Active
B2 bradykinin receptor
  IC50: Not Active
D(4) dopamine receptor
  IC50: Not Active
Cannabinoid receptor 1
  IC50: Not Active
[4]
  IC50: Not Active

## CN(C)CC[C@@H](c1ccc(Cl)cc1)c1ccccn1 [DEXCHLORPHENIRAMINE]
[1]
  IC50: Not Active
[2]
  IC50: Not Active
[3]; read-out: IC50
  IC50: 19.1 µM
[3]; read-out: Ki
  Ki: 11.7 µM
B2 bradykinin receptor
  IC50: Not Active
D(4) dopamine receptor
  IC50: Not Active
Cannabinoid receptor 1
  IC50: Not Active
[4]
  IC50: Not Active

## C[C@@H]1CC[C@@]2(OC1)O[C@H]1[C@@H](O)[C@H]3[C@@H]4CC[C@H]5C[C@@H](O[C@@H]6O[C@H](CO)[C@H](O[C@@H]7O[C@H](CO)C(O)[C@H](O[C@@H]8OC[C@@H](O)[C@H](O)[C@H]8O)[C@H]7O[C@@H]7O[C@H](CO)[C@H](O)[C@H](O[C@@H]8O[C@H](CO)[C@@H](O)[C@H](O)[C@H]8O)[C@H]7O)[C@H](O)[C@H]6O)[C@H](O)C[C@]5(C)[C@H]4CC[C@]3(C)[C@H]1[C@@H]2C (stereo partly specified) [DIGITONIN]
[1]
  IC50: Not Active
[2]
  IC50: Not Active
[3]
  IC50: Not Active
  Ki: Not Active
B2 bradykinin receptor
  IC50: Not Active
D(4) dopamine receptor
  IC50: Not Active
Cannabinoid receptor 1
  IC50: Not Active
[4]
  IC50: Not Active

## OC(CCCN1CCCCC1)(c1ccccc1)c1ccccc1 [DIPHENIDOL]
[1]
  IC50: Not Active
[2]
  IC50: Not Active
[3]
  IC50: Not Active
  Ki: Not Active
B2 bradykinin receptor
  IC50: Not Active
D(4) dopamine receptor
  IC50: Not Active
Cannabinoid receptor 1
  IC50: Not Active
[4]
  IC50: Not Active

## C[C@H]1O[C@@H](n2cc(F)c(=O)[nH]c2=O)[C@H](O)[C@@H]1O [DOXIFLURIDINE]
[1]
  IC50: Not Active
[2]
  IC50: Not Active
[3]
  IC50: Not Active
  Ki: Not Active
B2 bradykinin receptor
  IC50: Not Active
D(4) dopamine receptor
  IC50: Not Active
Cannabinoid receptor 1
  IC50: Not Active
[4]
  IC50: Not Active

## Cn1c(=O)c2c(ncn2CC(O)CO)n(C)c1=O (stereo unspecified) [DYPHYLLINE]
[1]
  IC50: Not Active
[2]
  IC50: Not Active
[3]
  IC50: Not Active
  Ki: Not Active
B2 bradykinin receptor
  IC50: Not Active
D(4) dopamine receptor
  IC50: Not Active
Cannabinoid receptor 1
  IC50: Not Active
[4]
  IC50: Not Active

## CC[C@H]1CN2CCc3cc(OC)c(OC)cc3[C@@H]2C[C@@H]1C[C@H]1NCCc2cc(OC)c(OC)cc21 [EMETINE]
[1]
  IC50: Not Active
[2]
  IC50: Not Active
[3]
  IC50: Not Active
  Ki: Not Active
B2 bradykinin receptor
  IC50: Not Active
D(4) dopamine receptor
  IC50: Not Active
Cannabinoid receptor 1
  IC50: Not Active
[4]
  IC50: Not Active

## COC(=O)CCc1ccc(OCC(O)CNC(C)C)cc1 (stereo unspecified) [ESMOLOL]
[1]
  IC50: Not Active
[2]
  IC50: Not Active
[3]
  IC50: Not Active
  Ki: Not Active
B2 bradykinin receptor
  IC50: Not Active
D(4) dopamine receptor
  IC50: Not Active
Cannabinoid receptor 1
  IC50: Not Active
[4]
  IC50: Not Active

## CCC1(C)CC(=O)NC1=O (stereo unspecified) [ETHOSUXIMIDE]
[1]
  IC50: Not Active
[2]
  IC50: Not Active
[3]
  IC50: Not Active
  Ki: Not Active
B2 bradykinin receptor
  IC50: Not Active
D(4) dopamine receptor
  IC50: Not Active
Cannabinoid receptor 1
  IC50: Not Active
[4]
  IC50: Not Active

## C#C[C@]1(OC(C)=O)CC[C@H]2[C@@H]3CCC4=C[C@@H](OC(C)=O)CC[C@@H]4[C@H]3CC[C@@]21C [ETHYNODIOL DIACETATE]
[1]
  IC50: Not Active
[2]
  IC50: Not Active
[3]
  IC50: Not Active
  Ki: Not Active
B2 bradykinin receptor
  IC50: Not Active
D(4) dopamine receptor
  IC50: Not Active
Cannabinoid receptor 1
  IC50: Not Active
[4]
  IC50: Not Active

## COc1cc([C@@H]2c3cc4c(cc3[C@@H](O[C@@H]3O[C@@H]5CO[C@@H](C)O[C@H]5[C@H](O)[C@H]3O)[C@H]3COC(=O)[C@H]23)OCO4)cc(OC)c1O [ETOPOSIDE]
[1]
  IC50: Not Active
[2]
  IC50: Not Active
[3]
  IC50: Not Active
  Ki: Not Active
B2 bradykinin receptor
  IC50: Not Active
D(4) dopamine receptor
  IC50: Not Active
Cannabinoid receptor 1
  IC50: Not Active
[4]
  IC50: Not Active

## C=CCc1ccc(O)c(OC)c1 [EUGENOL]
[1]
  IC50: Not Active
[2]
  IC50: Not Active
[3]
  IC50: Not Active
  Ki: Not Active
B2 bradykinin receptor
  IC50: Not Active
D(4) dopamine receptor
  IC50: Not Active
Cannabinoid receptor 1
  IC50: Not Active
[4]
  IC50: Not Active
